pEC50: −log10 of the molar value. *1 amine or outer side, *2 acyl side, *3 side chain or, on linkers, in order; H or OH if unused. Where a SMILES comes first, the peptide text is derived from it. Side-chain parts run from the residue outwards. [ ]: non-standard residue; d: D form. The star is where a group is joined. C20 diacid = O=C(O)CCCCCCCCCCCCCCCCCCC(=O)*; γGlu = O=C(O)[C@H](CCC(=O)[*:2])N[*:1]; X43 = O=C1CCC(C(=O)*)(c2ccccc2)CN1; X22 = CC(C)(C(=O)*)c1ccc(C#N)cc1F; X79 = O=C1CC(C(=O)*)(c2ccccn2)CN1; X42 = CCOc1cnn(C(C)(C)C(=O)*)c1; X7 = CC(C)(C(=O)*)c1cccc(C#N)c1; AEEA = NCCOCCOCC(=O)O; Aib = CC(C)(N)C(=O)O; βAla = NCCC(=O)O
Legend:
Type in all cases: cell-based
GIP receptor [1] = target: T1, GIP receptor (Homo sapiens, UniProt P48546); experiment: HitHunter cAMP assay, GIP receptor; details: for Emax: CHO cells, cAMP, normalized to maximum signal from GIP (high) and DMSO (low), read-out: Emax GIP-1R
T1 sequence (P48546 22-466): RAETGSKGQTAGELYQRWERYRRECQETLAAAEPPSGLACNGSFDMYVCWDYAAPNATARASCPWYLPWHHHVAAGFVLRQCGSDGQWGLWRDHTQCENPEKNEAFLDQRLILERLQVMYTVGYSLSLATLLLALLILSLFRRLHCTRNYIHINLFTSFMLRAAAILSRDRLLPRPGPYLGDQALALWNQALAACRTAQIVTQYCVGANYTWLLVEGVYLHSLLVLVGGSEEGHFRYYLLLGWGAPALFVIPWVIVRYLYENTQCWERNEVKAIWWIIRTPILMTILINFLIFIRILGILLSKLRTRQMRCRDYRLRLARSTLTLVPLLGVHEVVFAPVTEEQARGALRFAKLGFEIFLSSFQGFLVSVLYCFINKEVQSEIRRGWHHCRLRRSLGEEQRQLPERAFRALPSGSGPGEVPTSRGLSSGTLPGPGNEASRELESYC

GLP-1 receptor [2] = target: T2, GLP-1 receptor (Homo sapiens, UniProt P43220); experiment: HitHunter cAMP assay, GLP-1 receptor; details: for Emax: CHO cells, cAMP, normalized to maximum signal from GLP-1 (high) and DMSO (low), read-out: Emax GLP-1R
GLP-1 receptor [3] = target: T2, GLP-1 receptor; experiment: PathHunter β-arrestin assay, GLP-1 receptor; set-up: host or cells: PathHunter CHO-K1 GLP1R β-Arrestin Cell Line
Experimental: β-arrestin-2 recruitment for GLP-1 receptor or GIP receptor was measured using the DiscoverX PathHunter Detection Kit and PathHunter® CHO-K1 GLPIR β-Arrestin Cell Line or PathHunter® CHO-K1 GIPR β-Arrestin Cell Line, respectively). Briefly, cells were grown in Ham's F12 Nutrient Mix with 10% FBS and lifted with Cell dissociation buffer, Enzyme free, PBS based (ThermoFisher). Harvested cells were pelleted and resuspended in Assay Complete Cell Plating Reagent 2 and 5000 cells per well were plated in tissue culture treated 384-well small volume white assay plates. Plates were then incubated at 37° C. and 5% CO2 overnight. The media was then replaced with fresh Assay Complete Cell Plating Reagent 2. Cells were then treated with 10 nl compound in DMSO using an ECHO 550 acoustic dispenser (Labcyte) in a 20-point dose response format in duplicate for 90 min at 37° C. The assay was then completed according to the manufacturer's instructions. Luminescence was measured using a Perkin Elmer Envision plate reader. Raw data was normalized to the maximum signal from GLP-1 or GIP (high) and DMSO (low). Dose response curves were analyzed using GraphPad Prism 9.0.

GIP receptor [4] = target: T1, GIP receptor; experiment: PathHunter β-arrestin assay, GIP receptor; set-up: host or cells: PathHunter CHO-K1 GIPR β-Arrestin Cell Line
[5] = CHO cells stably expressing GIP receptor, cAMP accumulation, 30 min, read-out: EC50 GIP-1R
[6] = CHO cells stably expressing human GLP-1 receptor, cAMP accumulation, 30 min, read-out: EC50 GLP-1R
[7] = β-arrestin-2 recruitment, PathHunter CHO-K1 GLP1R β-Arrestin Cell Line, 90 min at 37° C., normalized to GLP-1, read-out: GLP-1R β Arrestin EC50
[8] = β-arrestin-2 recruitment, PathHunter CHO-K1 GIPR β-Arrestin Cell Line, 90 min at 37° C., normalized to GIP, read-out: GIPR β Arrestin EC50

T2 sequence (P43220 24-463): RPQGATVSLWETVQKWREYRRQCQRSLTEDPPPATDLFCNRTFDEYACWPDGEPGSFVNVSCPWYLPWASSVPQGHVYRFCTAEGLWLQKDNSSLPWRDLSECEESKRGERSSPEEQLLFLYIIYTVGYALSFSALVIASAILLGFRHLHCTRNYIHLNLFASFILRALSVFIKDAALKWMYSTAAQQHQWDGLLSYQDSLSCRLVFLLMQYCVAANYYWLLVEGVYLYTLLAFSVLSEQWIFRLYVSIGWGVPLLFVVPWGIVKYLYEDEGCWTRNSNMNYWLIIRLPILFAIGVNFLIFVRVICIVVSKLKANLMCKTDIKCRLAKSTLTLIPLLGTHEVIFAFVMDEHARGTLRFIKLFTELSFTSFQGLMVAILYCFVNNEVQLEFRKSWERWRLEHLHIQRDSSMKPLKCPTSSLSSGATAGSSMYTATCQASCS

Row | Structure (SMILES) | pEC50 (GIP receptor [1]; [5]) | Emax (GIP receptor [1]) [%] | pEC50 (GLP-1 receptor [2]; [6]) | Emax (GLP-1 receptor [2]) [%] | pEC50 (GLP-1 receptor [3]; [7]) | pEC50 (GIP receptor [4]; [8]) | pEC50 (GIP receptor [1]) | pEC50 (GLP-1 receptor [2]) | pEC50 (GLP-1 receptor [3]) | pEC50 (GIP receptor [4])
1 | CC[C@H](C)[C@H](NC(=O)[C@H](CC(C)C)NC(=O)[C@H](Cc1c[nH]c2ccccc12)NC(=O)[C@H](CCC(N)=O)NC(=O)[C@@H](NC(=O)[C@H](Cc1ccccc1)NC(=O)[C@H](C)NC(=O)[C@H](CCCCNC(=O)COCCOCCNC(=O)COCCOCCNC(=O)CC[C@H](NC(=O)CCCCCCCCCCCCCCCCCCC(=O)O)C(=O)O)NC(=O)[C@H](CCC(N)=O)NC(=O)[C@H](C)NC(=O)[C@@H](NC(=O)[C@H](CCCCN)NC(=O)[C@H](CC(=O)O)NC(=O)[C@H](CC(C)C)NC(=O)C(C)(C)NC(=O)[C@@H](NC(=O)[C@H](CO)NC(=O)[C@H](Cc1ccc(O)cc1)NC(=O)[C@H](CC(=O)O)NC(=O)[C@H](CO)NC(=O)[C@@H](NC(=O)[C@H](Cc1ccccc1)NC(=O)[C@@H](NC(=O)CNC(=O)[C@H](CCC(=O)O)NC(=O)CCNC(=O)C(C)(C)c1ccc(C#N)cc1F)[C@@H](C)O)[C@@H](C)O)[C@@H](C)CC)[C@@H](C)CC)C(C)C)C(=O)N[C@@H](C)C(=O)NCC(=O)NCC(=O)N1CCC[C@H]1C(=O)N[C@@H](CO)C(=O)N[C@@H](CO)C(=O)NCC(=O)N[C@@H](C)C(=O)N1CCC[C@H]1C(=O)N1CCC[C@H]1C(=O)N1CCC[C@H]1C(=O)N[C@@H](CO)C(N)=O [Compound 149] ({X22-βAla}-EGTFTSDYSI[Aib]LDKIAQK([AEEA-AEEA-γGlu-C20 diacid])AFVQWLIAGGPSSGAPPPS-NH2) | 8.00 to 9.00 | 96 | 9.00 to 10.00 | 98 | < 6.00 | > 6.00 |  |  |  | 
2 | CC[C@H](C)[C@H](NC(=O)[C@H](CC(C)C)NC(=O)[C@H](Cc1c[nH]c2ccccc12)NC(=O)[C@H](CCC(N)=O)NC(=O)[C@@H](NC(=O)[C@H](Cc1ccccc1)NC(=O)[C@H](C)NC(=O)[C@H](CCCCNC(=O)COCCOCCNC(=O)COCCOCCNC(=O)CC[C@H](NC(=O)CCCCCCCCCCCCCCCCCCC(=O)O)C(=O)O)NC(=O)[C@H](CCC(N)=O)NC(=O)[C@H](C)NC(=O)[C@@H](NC(=O)[C@H](CCCCN)NC(=O)[C@H](CC(=O)O)NC(=O)[C@H](CC(C)C)NC(=O)C(C)(C)NC(=O)[C@@H](NC(=O)[C@H](CO)NC(=O)[C@H](Cc1ccc(O)cc1)NC(=O)[C@H](CC(=O)O)NC(=O)[C@H](CO)NC(=O)[C@@H](NC(=O)[C@H](Cc1ccccc1)NC(=O)[C@@H](NC(=O)CNC(=O)[C@H](CCC(=O)O)NC(=O)CCNC(=O)C(C)(C)c1cccc(C#N)c1)[C@@H](C)O)[C@@H](C)O)[C@@H](C)CC)[C@@H](C)CC)C(C)C)C(=O)N[C@@H](C)C(=O)NCC(=O)NCC(=O)N1CCC[C@H]1C(=O)N[C@@H](CO)C(=O)N[C@@H](CO)C(=O)NCC(=O)N[C@@H](C)C(=O)N1CCC[C@H]1C(=O)N1CCC[C@H]1C(=O)N1CCC[C@H]1C(=O)N[C@@H](CO)C(N)=O [Compound 150] ({X7-βAla}-EGTFTSDYSI[Aib]LDKIAQK([AEEA-AEEA-γGlu-C20 diacid])AFVQWLIAGGPSSGAPPPS-NH2) |  | 91 |  | 103 |  |  | 9.00 to 10.00 | 9.00 to 10.00 | < 6.00 | > 6.00
3 | CC[C@H](C)[C@H](NC(=O)[C@H](CC(C)C)NC(=O)[C@H](Cc1c[nH]c2ccccc12)NC(=O)[C@H](CCC(N)=O)NC(=O)[C@@H](NC(=O)[C@H](Cc1ccccc1)NC(=O)[C@H](C)NC(=O)[C@H](CCCCNC(=O)COCCOCCNC(=O)COCCOCCNC(=O)CC[C@H](NC(=O)CCCCCCCCCCCCCCCCCCC(=O)O)C(=O)O)NC(=O)[C@H](CCC(N)=O)NC(=O)[C@H](C)NC(=O)[C@@H](NC(=O)[C@H](CCCCN)NC(=O)[C@H](CC(=O)O)NC(=O)[C@H](CC(C)C)NC(=O)C(C)(C)NC(=O)[C@@H](NC(=O)[C@H](CO)NC(=O)[C@H](Cc1ccc(O)cc1)NC(=O)[C@H](CC(=O)O)NC(=O)[C@H](CO)NC(=O)[C@@H](NC(=O)[C@H](Cc1ccccc1)NC(=O)[C@@H](NC(=O)CNC(=O)[C@H](CCC(=O)O)NC(=O)CCNC(=O)C1(c2ccccn2)CNC(=O)C1)[C@@H](C)O)[C@@H](C)O)[C@@H](C)CC)[C@@H](C)CC)C(C)C)C(=O)N[C@@H](C)C(=O)NCC(=O)NCC(=O)N1CCC[C@H]1C(=O)N[C@@H](CO)C(=O)N[C@@H](CO)C(=O)NCC(=O)N[C@@H](C)C(=O)N1CCC[C@H]1C(=O)N1CCC[C@H]1C(=O)N1CCC[C@H]1C(=O)N[C@@H](CO)C(N)=O (stereo partly drawn) [Compound 151] ({X79-βAla}-EGTFTSDYSI[Aib]LDKIAQK([AEEA-AEEA-γGlu-C20 diacid])AFVQWLIAGGPSSGAPPPS-NH2) | 8.00 to 9.00 | 105 | 8.00 to 9.00 | 101 | < 6.00 | < 6.00 |  |  |  | 
4 | CCOc1cnn(C(C)(C)C(=O)NCCC(=O)N[C@@H](CCC(=O)O)C(=O)NCC(=O)N[C@H](C(=O)N[C@@H](Cc2ccccc2)C(=O)N[C@H](C(=O)N[C@@H](CO)C(=O)N[C@@H](CC(=O)O)C(=O)N[C@@H](Cc2ccc(O)cc2)C(=O)N[C@@H](CO)C(=O)N[C@H](C(=O)NC(C)(C)C(=O)N[C@@H](CC(C)C)C(=O)N[C@@H](CC(=O)O)C(=O)N[C@@H](CCCCN)C(=O)N[C@H](C(=O)N[C@@H](C)C(=O)N[C@@H](CCC(N)=O)C(=O)N[C@@H](CCCCNC(=O)COCCOCCNC(=O)COCCOCCNC(=O)CC[C@H](NC(=O)CCCCCCCCCCCCCCCCCCC(=O)O)C(=O)O)C(=O)N[C@@H](C)C(=O)N[C@@H](Cc2ccccc2)C(=O)N[C@H](C(=O)N[C@@H](CCC(N)=O)C(=O)N[C@@H](Cc2c[nH]c3ccccc23)C(=O)N[C@@H](CC(C)C)C(=O)N[C@H](C(=O)N[C@@H](C)C(=O)NCC(=O)NCC(=O)N2CCC[C@H]2C(=O)N[C@@H](CO)C(=O)N[C@@H](CO)C(=O)NCC(=O)N[C@@H](C)C(=O)N2CCC[C@H]2C(=O)N2CCC[C@H]2C(=O)N2CCC[C@H]2C(=O)N[C@@H](CO)C(N)=O)[C@@H](C)CC)C(C)C)[C@@H](C)CC)[C@@H](C)CC)[C@@H](C)O)[C@@H](C)O)c1 [Compound 152] ({X42-βAla}-EGTFTSDYSI[Aib]LDKIAQK([AEEA-AEEA-γGlu-C20 diacid])AFVQWLIAGGPSSGAPPPS-NH2) | 7.00 to 8.00 | 104 | 9.00 to 10.00 | 98 | < 6.00 | < 6.00 |  |  |  | 
5 | CC[C@H](C)[C@H](NC(=O)[C@H](CO)NC(=O)[C@H](CCCCNC(=O)COCCOCCNC(=O)COCCOCCNC(=O)CC[C@H](NC(=O)CCCCCCCCCCCCCCCCCCC(=O)O)C(=O)O)NC(=O)[C@H](CC(=O)O)NC(=O)[C@H](CO)NC(=O)[C@@H](NC(=O)[C@H](Cc1ccccc1)NC(=O)[C@@H](NC(=O)CNC(=O)[C@H](CCC(=O)O)NC(=O)CCNC(=O)C1(c2ccccc2)CCC(=O)NC1)[C@@H](C)O)[C@@H](C)O)C(=O)N[C@@H](Cc1ccc(O)cc1)C(=O)N[C@@H](CC(C)C)C(=O)N[C@@H](CC(=O)O)C(=O)N[C@@H](CCCCN)C(=O)N[C@@H](CCC(N)=O)C(=O)N[C@@H](C)C(=O)N[C@@H](C)C(=O)NC(C)(C)C(=O)N[C@@H](CCC(=O)O)C(=O)N[C@@H](Cc1ccccc1)C(=O)N[C@H](C(=O)N[C@@H](CC(N)=O)C(=O)N[C@@H](Cc1c[nH]c2ccccc12)C(=O)N[C@@H](CC(C)C)C(=O)N[C@@H](CC(C)C)C(=O)N[C@@H](C)C(=O)NCC(=O)NCC(=O)N1CCC[C@H]1C(=O)N[C@@H](CO)C(=O)N[C@@H](CO)C(=O)NCC(=O)N[C@@H](C)C(=O)N1CCC[C@H]1C(=O)N1CCC[C@H]1C(=O)N1CCC[C@H]1C(=O)N[C@@H](CO)C(N)=O)C(C)C (stereo partly drawn) [Compound 153] ({X43-βAla}-EGTFTSDK([AEEA-AEEA-γGlu-C20 diacid])SIYLDKQAA[Aib]EFVNWLLAGGPSSGAPPPS-NH2) | 8.00 to 9.00 | 105 | 9.00 to 10.00 | 101 | < 6.00 | < 6.00 |  |  |  | 

— US12281149B2, “Modulators of G-protein coupled receptors” (priority 2021, dated 2025)
